This note sets out measurements from patent US20210317092A1 (BAYER PHARMA AKTIENGESELLSCHAFT, priority 2016, published 2021).

For assay [1], the target named is T1, native human Bradykinin B1 receptor (Homo sapiens, UniProt P46663).
T1 construct: which express native human Bradykinin B1 receptor after induction with human IL-10; Coriell Institute; host or cells: IMR-90 human foetal lung fibroblasts, cytokine-induced
T1 sequence (P46663 1-353): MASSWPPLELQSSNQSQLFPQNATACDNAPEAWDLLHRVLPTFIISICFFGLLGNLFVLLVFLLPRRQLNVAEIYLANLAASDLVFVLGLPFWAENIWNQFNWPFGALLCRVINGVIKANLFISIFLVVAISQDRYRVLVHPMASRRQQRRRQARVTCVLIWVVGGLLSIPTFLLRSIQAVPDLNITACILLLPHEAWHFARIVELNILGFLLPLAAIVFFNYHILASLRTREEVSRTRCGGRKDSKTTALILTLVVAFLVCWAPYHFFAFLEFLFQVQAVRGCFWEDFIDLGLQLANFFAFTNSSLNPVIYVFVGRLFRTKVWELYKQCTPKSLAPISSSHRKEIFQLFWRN
Kind of assay: Calcium flux Assay (FLIPR) with human fibroblasts expressing Bradykinin B1 receptor (hB1 IMR-90). Type of assay: cell-based. The settings on record: IMR-90 human fibroblasts expressing native Bradykinin B1 receptor. The method in brief: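 IMR-90 human foetal lung fibroblasts induced with 0.35 ng/mL […] for 3 h, Fluo-4/AM-loaded, preincubated with compound (8 concentrations, triplicate) for 30 min at 28 °C, then challenged with Lys-(Des-Arg)-bradykinin at EC90. Ca2+ fluorescence was read at 538 nm; full inhibition set by 20 µM Lys-(Des-Arg-Leu)-bradykinin; IC50 derived.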
For orientation: Calcium assays in cells follow changes in intracellular calcium, usually with a dye or a luminescent sensor.

Assay [2] addresses T2, human Bradykinin B1 receptor (Homo sapiens, UniProt P46663).
T2 construct: host or cells: CHO-K1
T2 sequence (P46663 1-353): T1 sequence (P46663 1-353)
The experiment in a line: Calcium flux Assay (FLIPR) with recombinant CHO-K1 cells expressing human Bradykinin B1 receptor, in presence (hB1 IC50) or absence (hB1 free IC50) of 0.1% BSA. The class given is cell-based.

Where [3] appears, read: in absence of 0.1% BSA, read-out: hB1 free IC50.
Where [4] appears, read: in presence of 0.1% BSA, read-out: hB1 IC50.

Read-outs that look alike come from different tables or passages of the source.

On to `O=C(Nc1cc(F)c(-c2ccnc(C(F)(F)F)c2)c(-c2nnn[nH]2)c1)C1(c2ccc(C(F)(F)F)cc2F)CC1` [Example 267, N-{3-fluoro-5-(1H-tetrazol-5-yl)-4-[2-(trifluoromethyl)pyridin-4-yl]phenyl}-1-[2-fluoro-4-(trifluoromethyl)phenyl]cyclopro-panecarboxamide], for which the results for the IC50 in assay [1] and in assay [2] (setting [3]) were 48.3 nM and 19 nM, respectively.
For `O=C(Nc1ccc(-c2ccc(N3CCOCC3)nc2)c(-c2nnn[nH]2)c1)C1(c2cccc(Cl)c2)CC1` [Example 329, 1-(3-chlorophenyl)-N-{4-[6-(morpholin-4-yl)pyridin-3-yl]-3-(1H-tetrazol-5-yl)phenyl}cyclopro-panecarboxa-mide], the IC50 (as a rule, the concentration that inhibits the measured activity by half) in assay [1] was found to be 70.3 nM; in assay [2] (setting [3]), 85 nM; in assay [2] (setting [4]), 90.5 nM.
Consider `COc1ccc(-c2ccc(NC(=O)C3(c4ccc(C)c(F)c4)CC3)cc2-c2nnn[nH]2)cc1OC` [Example 12, N-[3′,4′-dimethoxy-2-(1H-tetrazol-5-yl)biphenyl-4-yl]-1-(3-fluoro-4-methylpheny) cyclopropane-carboxamide], for which the IC50 in assay [1] was found to be 39.3 nM; in assay [2] (setting [3]) it was 56.4 nM; in assay [2] (setting [4]) it was 18.1 nM.
For `COc1ccc(-c2c(F)cc(NC(=O)C3(c4ccc(C(F)(F)F)cc4)CC3)cc2-c2nnn[nH]2)cc1OC` [Example 232, N-[2-Fluoro-3′,4′-dimethoxy-6-(1H-tetrazol-5-yl)biphenyl-4-yl]-1-[4-(trifluoromethyl)phenyl] cyclopropane-carboxamide], in that order: 6.8 nM, 8.26 nM and 18.6 nM.
For `O=C(Nc1ccc(-c2ccc(C(F)F)nc2)c(-c2nnn[nH]2)c1)C1(c2cccc(Cl)c2)CC1` [Example 260, 1-(3-chlorophenyl)-N-{4-[6-(difluoromethyl)pyridin-3-yl]-3-(1H-tetrazol-5-yl)phenyl}cyclopro-panecarboxa-mide], the figures for the IC50 in assay [1] and in assay [2] (setting [3]) were 14.9 nM and 18.8 nM, respectively.
For `COc1cc(-c2ccc(NC(=O)C3(c4ccc(C(F)(F)F)cc4F)CC3)cc2-c2nnn[nH]2)cnc1C(F)(F)F` [Example 147, 1-[2-fluoro-4-(trifluoromethyl)phenyl]-N-{4-[5-methoxy-6-(trifluoromethyl)pyridin-3-yl]-3-(1H-tetrazol-5-yl)phenyl} cyclopropane-carboxamide], in that order: 36.3 nM and 35.3 nM.
Turning to `COc1ccc(-c2ccc(NC(=O)C3(C4CCC(C)(C)CC4)CC3)cc2-c2nnn[nH]2)cc1OC` [Example 56, N-[3′,4′-dimethoxy-2-(1H-tetrazol-5-yl)biphenyl-4-yl]-1-(4,4-dimethyl-cyclohexyl) cyclopropane-carboxamide], the IC50 in assay [1] worked out at 20.2 nM; in assay [2] (setting [3]) it was 15.3 nM; in assay [2] (setting [4]) it was 21.7 nM.
In the case of `O=C(Nc1ccc(-c2ccc(C(F)(F)F)nc2)c(-c2nnn[nH]2)c1)C1(c2ccc(OC(F)(F)F)cc2)CC1` [Example 136, N-{3-(1H-tetrazol-5-yl)-4-[6-(trifluoromethyl)pyridin-3-yl]phenyl}-1-[4-(trifluoromethoxy)phenyl] cyclopropane-carboxamide], the IC50 in assay [1] was found to be 15.7 nM; in assay [2] (setting [3]) it was 165 nM.
For `O=C(Nc1ccc(-c2ccnc(C(F)F)c2)c(-c2nnn[nH]2)c1)C1(c2ccc(C(F)(F)F)cc2F)CC1` [Example 258, N-{4-[2-(difluoromethyl)pyridin-4-yl]-3-(1H-tetrazol-5-yl)phenyl}-1-[2-fluoro-4-(trifluoromethyl)phenyl]cyclopro-panecarboxamide], in that order: 47.3 nM and 35.2 nM.
With `Cc1cc(-c2c(F)cc(NC(=O)C3(c4ccc(C(F)(F)F)cc4F)CC3)cc2-c2nnn[nH]2)ccn1` [Example 265, N-[3-fluoro-4-(2-methylpyridin-4-yl)-5-(1H-tetrazol-5-yl)phenyl]-1-[2-fluoro-4-(trifluoromethyl)phenyl]cyclopro-panecarboxamide], the IC50 in assay [1] came to 2.28 nM; in assay [2] (setting [3]), 2.63 nM.
As to `CCOc1ccc(-c2ccc(NC(=O)C3(c4ccc(C(F)(F)F)cc4)CC3)cc2-c2nnn[nH]2)cn1` [Example 105, N-[4-(6-ethoxypyridin-3-yl)-3-(1H-tetrazol-5-yl)phenyl]-1-[4-(trifluoromethyl)phenyl] cyclopropane-carboxamide], the values for the IC50 in assay [1], in assay [2] (setting [3]) and in assay [2] (setting [4]) were 10.7 nM, 4.54 nM and 10.9 nM, respectively.
With `COc1ccc(-c2ccc(NC(=O)C3(c4ccc(Cl)cc4F)CC3)cc2-c2nnn[nH]2)cc1OC` [Example 18, 1-(4-chloro-2-fluorophenyl)-N-[3′,4′-dimethoxy-2-(1H-tetrazol-5-yl)biphenyl-4-yl]cyclopropane carboxamide], the IC50 came out at 27.4 nM in assay [1] and 40.2 nM in assay [2] (setting [4]).
In the case of “N-[4-(6- ethoxypyridin-3- yl)-3-(1H- tetrazol-5- yl)phenyl]-1-(4- ethylphenyl) cyclopropane- carboxamide [Example 69]”, the figures for the concentration for half-maximal inhibition (IC50) in assay [1], in assay [2] (setting [3]) and in assay [2] (setting [4]) were 16.2 nM, 6.75 nM and 30.9 nM, respectively.
As to `O=C(Nc1cc(-c2nnn[nH]2)c(-c2ccc(C(F)(F)F)nc2)cc1O)C1(c2ccc(Cl)c(F)c2)CC1` [Example 224, 1-(4-chloro-3-fluorophenyl)-N-{2-hydroxy-5-(1H-tetrazol-5-yl)-4-[6-(trifluoromethyl)pyridin-3-yl]phenyl} cyclopropane-carboxamide], the IC50 in assay [1] came out at 108 nM; in assay [2] (setting [4]), 49.6 nM.
On to `CCOc1ccc(-c2ccc(NC(=O)C3(c4ccc(C(F)(F)F)cc4F)CC3)cc2-c2nnn[nH]2)cn1` [Example 72, N-[4-(6-ethoxypyridin-3-yl)-3-(1H-tetrazol-5-yl)phenyl]-1-[2-fluoro-4-(trifluoromethyl)phenyl] cyclopropane-carboxamide], for which the IC50 was determined as 5.72 nM in assay [1], 6.82 nM in assay [2] (setting [3]) and 15.5 nM in assay [2] (setting [4]).
As for `CCCOc1ccc(-c2ccc(NC(=O)C3(c4ccc(C(F)(F)F)cc4)CC3)cc2-c2nnn[nH]2)cn1` [Example 111, N-[4-(6-propoxypyridin-3-yl)-3-(1H-tetrazol-5-yl)phenyl]-1-[4-(trifluoromethyl)phenyl] cyclopropane-carboxamide], the concentration for half-maximal inhibition (IC50) in assay [1] worked out at 10.6 nM; in assay [2] (setting [3]), 4.98 nM; in assay [2] (setting [4]), 16.6 nM.
For `CCCc1cccc(C2(C(=O)Nc3ccc(-c4ccc(OCC)nc4)c(-c4nnn[nH]4)c3)CC2)c1` [Example 96, N-[4-(6-ethoxypyridin-3-yl)-3-(1H-tetrazol-5-yl)phenyl]-1-(3-propylphenyl) cyclopropane-carboxamide], in that order: 15.3 nM, 5.32 nM and 6.58 nM.
Take `CCOc1ccc(-c2ccc(NC(=O)C3(c4cccc(C(F)(F)F)c4)CC3)cc2-c2nnn[nH]2)cc1OC` [Example 120, N-[4′-ethoxy-3′-methoxy-2-(1H-tetrazol-5-yl)biphenyl-4-yl]-1-[3-(trifluoromethyl)phenyl] cyclopropane-carboxamide]: the results for the IC50 in assay [1] and in assay [2] (setting [4]) were 25.1 nM and 30.6 nM, respectively.
For `O=C(Nc1cc(-c2nnn[nH]2)c(-c2ccc(C(F)(F)F)nc2)cc1O)C1(c2ccc(F)c(Cl)c2)CC1` [Example 220, 1-(3-chloro-4-fluorophenyl)-N-{2-hydroxy-5-(1H-tetrazol-5-yl)-4-[6-(trifluoromethyl)pyridin-3-yl]phenyl} cyclopropane-carboxamide], the results for the IC50 in assay [1], in assay [2] (setting [3]) and in assay [2] (setting [4]) were 23.1 nM, 27.4 nM and 49.8 nM, respectively.
As to `O=C(Nc1ccc(-c2ccnc(C(F)(F)F)c2)c(-c2nnn[nH]2)c1)C1(c2ccc(C(F)(F)F)cc2F)CC1` [Example 173, 1-[2-fluoro-4-(trifluoromethyl)phenyl]-N-{3-(1H-tetrazol-5-yl)-4-[2-(trifluoromethyl)pyridin-4-yl]phenyl} cyclopropane-carboxamide], the IC50 turned out to be 92.4 nM in assay [1] and 86.5 nM in assay [2] (setting [3]).
With `CCOc1ccc(-c2ccc(NC(=O)C3(c4ccc(F)c(C)c4)CC3)cc2-c2nnn[nH]2)cn1` [Example 102, N-[4-(6-ethoxypyridin-3-yl)-3-(1H-tetrazol-5-yl]phenyl]-1-(4-fluoro-3-methylphenyl) cyclopropane-carboxamide], the results for the IC50 in assay [1] and in assay [2] (setting [4]) were 21 nM and 34.8 nM, respectively.
For `CCCOc1ccc(-c2ccc(NC(=O)C3(c4cccc(Cl)c4)CC3)cc2-c2nnn[nH]2)cn1` [Example 110, 1-(3-chlorophenyl)-N-[4-(6-propoxypyridin-3-yl)-3-(1H-tetrazol-5-yl)phenyl] cyclopropane-carboxamide], the IC50 in assay [1] was found to be 11 nM; in assay [2] (setting [3]) it was 5.68 nM; in assay [2] (setting [4]), 12.7 nM.
On to `COc1ccc(-c2ccc(NC(=O)C3(c4ccc(F)c(C)c4)CC3)cc2-c2nnn[nH]2)cc1OC` [Example 48, N-[3′,4′-dimethoxy-2-(1H-tetrazol-5-yl)biphenyl-4-yl]-1-(4-fluoro-3-methylphenyl) cyclopropane-carboxamide], for which the half-inhibitory concentration (IC50) in assay [1] came to 29.3 nM; in assay [2] (setting [4]) it was 50.5 nM.
